Source: US5424292A (Depha Team s.r.l., priority 1990, dated 1995)

Key:
[1] = cited from earlier work
[2] = male Fischer rats, doses equivalent to 60 mg/kg of 5-ASA via metal probe into stomach; for Recovery percentages of 5-ASA + N-acetyl-5-ASA in feces by HPLC: feces withdrawn at 2 hour intervals for 48 hours; for Recovery percentages of 5-ASA + N-acetyl-5-ASA in urine by HPLC: urine withdrawn at 2 hour intervals for 48 hours
Protocol: Particularly, male Fischer rats weighing about 200-250 g were used.
The rats were then placed in metabolic cages, from which feces and urine were withdrawn at 2 hour intervals for 48 hours.

SMILES	Stability at the gastric pH [1]	Recovery percentages of 5-ASA + N-acetyl-5-ASA in feces by HPLC [2] [%]	Recovery percentages of 5-ASA + N-acetyl-5-ASA in urine by HPLC [2] [%]
Nc1ccc(O)c(C(=O)O)c1 [Compound 5-ASA, 5-aminosalicylic acid]	not stable at the gastric pH	05 ± 3	79 ± 3
N[C@@H](CCC(=O)O)C(=O)Nc1ccc(O)c(C(=O)O)c1 [Compound 2, (N-L-glutamyl)-amino-2-salicylic acid]		45 ± 4	34 ± 4
